In US20150335602A1, “IMPROVEMENT OF COGNITIVE FUNCTION IN PRETERM INFANTS THAT ARE SMALL FOR GESTATIONAL AGE” (N.V. NUTRICIA, priority 2013, published 2015):

Assays:
Format in all cases: in vivo, human
[1] = Brain cortical volumes by MRI at school age after enteral glutamine supplementation in the first month of life; conditions: glutamine supplemented group versus control preterm group
Description: (§1) A randomized, placebo controlled clinical trial was performed. For a detailed protocol of the study, see van den Berg et al, 2004, Glutamine-enriched enteral nutrition in very low birth weight infants. Design of a double-blind randomised controlled trial [ISRCTN73254583], BMC Pediatrics 4:17.
(§2) In short: Infants with a gestational age <32 weeks and/or birth weight <1500 g were enrolled. […] Also comparisons were made with a control group (n=52) of term born infants.
(§3) The two powders were indistinguishable by appearance, colour and smell. […] Initially, the supplementation dose was based on birth weight. After 2 weeks the dose was adjusted to actual body weight. Two members of the nursing staff daily added supplementation to breast milk or to preterm formula (Nenatal®, Nutricia Nederland B. V., Zoetermeer, The Netherlands), according to the parents' choice. Per 100 ml, Nenatal® provides 78 kcal, 2.1 g protein (casein-whey protein weight ratio 40:60), 4.4 g fat and 7.5 g carbohydrate. […] Protocol guidelines for the introduction of parenteral and enteral nutrition are disclosed in van den Berg et al., 2004.
(§4) All statistical analyses are performed on an intention to treat basis. […]
Brain cortical volumes were determined by MRI and calculated using FSL software “FAST” and corrected for age at MRI scan, gender and body weight for gestational age.

[2] = Brain subcortical volumes by MRI at school age after enteral glutamine supplementation in the first month of life; conditions: glutamine supplemented group versus control preterm group
Description: as §1, §2, §3, §4
Brain subcortical volumes were determined by MRI and calculated using FSL software “FAST” and corrected for age at MRI scan, gender and body weight for gestational age.

[3] = Intellectual development (WISC-III short form, FSIQ) in preterm children born small for gestational age; conditions: SGA glutamine group versus SGA control group, n=9 each
Description: A subgroup of infants born small for gestational age (SGA <10th percentile) was identified and analysed separately. Intellectual development was analysed in this subgroup of infants by a short form of the Wechsler Intelligence Scale for Children-III (WISC-III), including the subtests Vocabulary and Block Design. Both subtests correlate strongly (r 0.90) with full-scale intelligence quotient (FSIQ). Scores on this test were normalised with a mean of 100 (SD 15). A group of nine SGA infants that received placebo was compared with a group of nine SGA infants that received glutamine treatment.

**Q.** For `NC(=O)CC[C@H](N)C(=O)O` [Glutamine, L-glutamine], which “White matter volume compared to preterm control group (in words)” value [1] is on record?
**A.** significantly higher

**Q.** And the “Brain stem volume compared to preterm control group (in words)” value [2]?
**A.** significantly higher

**Q.** What about the “Hippocampus volume compared to preterm control group (in words)” value [2] of the same compound?
**A.** significantly higher

**Q.** What about the “IQ compared to SGA control group (in words)” value [3] of the same compound?
**A.** significant improvement
